Test systems include HOP-62 NSCLC; HS 578T breast; IGROV1 ovarian; MDA-MB-231 breast; NCI-H226 lung; OVCAR-3 ovarian; SF-268 CNS; SK-MEL-5 melanoma; T-47D breast; U251 CNS.
Common to all, as to experiment: inhibition of tumour cell growth, NCI panel, 48 h

“And” between values parts separate entries of the source, which are not always exact repeats. Equal values may be shown once.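 1) Cells in 96-well plates. 2) Compound, 48 h, 5 concentrations. 3) Linear interpolation between surrounding doses. 4) Unreached endpoint = highest concentration. Here, GI50 denotes the concentration required for 50% inhibition of growth. At the TGI there is no net growth.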 Bounds are passed on as bounds.

In the case of `COc1ccc(-c2cc(=O)c3c(OC)c(OC)c(OC)cc3o2)cc1`, the TGI in the experiment with HOP-62 NSCLC is 59.8 µM; in the experiment with HS 578T breast it was > 100 µM; in the experiment with IGROV1 ovarian, > 100 µM; with MDA-MB-231 breast, > 100 µM; in the experiment on NCI-H226 lung, > 100 µM; with OVCAR-3 ovarian it was 94.9 µM. The TGI was > 100 µM with SF-268 CNS, 43.3 µM in the experiment on SK-MEL-5 melanoma, 62.4 µM in the experiment on T-47D breast and > 100 µM in the experiment on U251 CNS.
Regarding `C[C@]12CC[C@H]3[C@@H](CC=C4C[C@@H](O)CC[C@@]43C)[C@@H]1CC[C@@H]2N(CCO)CCO`, the TGI in the experiment on HOP-62 NSCLC, with HS 578T breast, in the experiment on IGROV1 ovarian, with MDA-MB-231 breast, in the experiment with NCI-H226 lung and in the experiment on OVCAR-3 ovarian was > 100 µM each time. The TGI with SF-268 CNS, with SK-MEL-5 melanoma, in the experiment on T-47D breast and with U251 CNS was > 100 µM in each case.
As for `CCN(CC)CCOc1ccc(/C(=C(\Cl)c2ccccc2)c2ccccc2)cc1`, the GI50 was 1.38 µM and 1.94 µM in the experiment on HOP-62 NSCLC; 5.25 µM and 3.15 µM with HS 578T breast; 4.83 µM and 3.04 µM with IGROV1 ovarian; 1.37 µM and 2.13 µM with MDA-MB-231 breast; 5.46 µM and 4.01 µM in the experiment on NCI-H226 lung; 5.24 µM and 3.42 µM in the experiment on OVCAR-3 ovarian. The GI50 in the experiment with SF-268 CNS was 5.47 µM and 4.78 µM; in the experiment with SK-MEL-5 melanoma, 0.808 µM and 1.55 µM; in the experiment on T-47D breast, 1.51 µM and 1.73 µM; in the experiment on U251 CNS, 1.72 µM and 1.53 µM. Moreover, the TGI was 4.76 µM and 4.16 µM in the experiment with HOP-62 NSCLC; 19.4 µM and 17.7 µM in the experiment on HS 578T breast; 12.8 µM and 14.1 µM in the experiment with IGROV1 ovarian; 5.16 µM and 4.49 µM in the experiment on MDA-MB-231 breast; 12.9 µM and 16.3 µM in the experiment on NCI-H226 lung; 11.4 µM and 15.7 µM with OVCAR-3 ovarian. The TGI was 11.9 µM and 19.2 µM with SF-268 CNS; 1.5 µM and 2.88 µM with SK-MEL-5 melanoma; 9.55 µM and 12.9 µM with T-47D breast; 7.22 µM and 3.51 µM in the experiment on U251 CNS.
Consider `COC1/C=C\C=C(/C)C(=O)NC2=CC(=O)C(=O)C(=C2O)CC(C)CC(OC)C(O)C(C)/C=C(\C)C1OC(N)=O` (stereo not given), for which the TGI in the experiment on HOP-62 NSCLC was > 74.1 µM; in the experiment on HS 578T breast, > 100 µM; in the experiment with IGROV1 ovarian it was > 100 µM; with MDA-MB-231 breast it was 4.22 µM; in the experiment with NCI-H226 lung it was > 100 µM; in the experiment with OVCAR-3 ovarian, 19.7 µM. Besides, the TGI with SF-268 CNS is > 58.9 µM; with SK-MEL-5 melanoma it was 43.7 µM; in the experiment on T-47D breast, 70.9 µM; with U251 CNS, > 40.3 µM.
Turning to `OCc1c[nH]c2ccccc12`, the GI50 is 14.4 µM in the experiment on HOP-62 NSCLC; 33.9 µM in the experiment on HS 578T breast; 14.1 µM with IGROV1 ovarian; 14.7 µM in the experiment on MDA-MB-231 breast; 17.4 µM in the experiment with NCI-H226 lung; 20.3 µM with OVCAR-3 ovarian. In addition, the GI50 in the experiment on SF-268 CNS was 33.4 µM; in the experiment on SK-MEL-5 melanoma it was 14.4 µM; with T-47D breast, 16 µM; in the experiment on U251 CNS, 21.9 µM. Also, the TGI is 36.7 µM with HOP-62 NSCLC; > 100 µM in the experiment on HS 578T breast; 42.2 µM with IGROV1 ovarian; 47.7 µM in the experiment on MDA-MB-231 breast; 48.1 µM in the experiment on NCI-H226 lung; 49.3 µM in the experiment on OVCAR-3 ovarian. Further, the TGI in the experiment on SF-268 CNS is > 100 µM; in the experiment with SK-MEL-5 melanoma it was 30.1 µM; with T-47D breast, > 100 µM; in the experiment on U251 CNS it was 62 µM.
As to `O=C1Nc2c(C(F)(F)F)cccc2[C@]1(c1ccc(O)cc1)c1ccc(OC(F)(F)F)cc1`, the GI50 with HOP-62 NSCLC is 15.7 µM; in the experiment on HS 578T breast, 1.44 µM; in the experiment with IGROV1 ovarian, 9.42 µM; in the experiment on MDA-MB-231 breast, 13 µM; in the experiment with NCI-H226 lung it was 11.6 µM; with OVCAR-3 ovarian it was 3.95 µM. Further, the GI50 is 8.73 µM with SF-268 CNS, 11.9 µM in the experiment with SK-MEL-5 melanoma, 1.18 µM with T-47D breast and 11.1 µM in the experiment on U251 CNS. Besides, the TGI was determined as 39.9 µM in the experiment with HOP-62 NSCLC; 5.89 µM with HS 578T breast; 23.4 µM in the experiment with IGROV1 ovarian; 26.2 µM with MDA-MB-231 breast; 32.4 µM in the experiment on NCI-H226 lung; 16.3 µM in the experiment with OVCAR-3 ovarian. The TGI was 24 µM in the experiment on SF-268 CNS, 24.6 µM in the experiment with SK-MEL-5 melanoma, 17.9 µM in the experiment on T-47D breast and 24.6 µM in the experiment on U251 CNS.
On to `N#Cc1ccc(O)c(C2=NCC(c3cccc(Oc4ccccc4)c3)O2)c1` (stereo not given), for which the GI50 with HOP-62 NSCLC is 0.605 µM; with HS 578T breast it was 3.03 µM; in the experiment on IGROV1 ovarian, 0.787 µM; in the experiment on MDA-MB-231 breast, 1.28 µM; in the experiment with NCI-H226 lung, 1.7 µM; with OVCAR-3 ovarian, 0.432 µM. The GI50 with SF-268 CNS is 1.3 µM; in the experiment on SK-MEL-5 melanoma, 0.549 µM; with T-47D breast it was 0.817 µM; in the experiment on U251 CNS, 0.503 µM. The TGI is 12.7 µM with HOP-62 NSCLC; > 100 µM with HS 578T breast; 12.1 µM in the experiment on IGROV1 ovarian; 12 µM with MDA-MB-231 breast; 11.1 µM in the experiment with NCI-H226 lung; 10.8 µM in the experiment with OVCAR-3 ovarian. Moreover, the TGI is > 100 µM in the experiment on SF-268 CNS, 2.3 µM with SK-MEL-5 melanoma, 59.6 µM with T-47D breast and > 100 µM with U251 CNS.

These data come from PubChem BioAssay (NCI).
